# Test system: T1, purified asparaginase from L. theobromae
# T1 construct: native extracellular enzyme purified from culture filtrate of asparagine-induced endophytic fungus (acetone, Q-FF, Sephadex G-100); about 70 kDa on SDS-PAGE
# Assay: direct Nesslerization of released ammonia; Lineweaver-Burk and Michaelis-Menten plots
# Format: biochemical, Lasiodiplodia theobromae
# Conditions: asparagine 0-20 mM; standard assay pH 7, 37 °C
# Description: direct Nesslerization of released ammonia; Lineweaver-Burk and Michaelis-Menten plots on purified asparaginase from L. theobromae | Michaelis constant Km and maximum velocity Vmax of the purified asparaginase from L. theobromae were […]
smiles,measurement,value
NC(=O)C[C@H](N)C(=O)O [asparagine],Km,9.37 µM

# Reference: article PMC8775487, “Insights into Asparaginase from Endophytic Fungus Lasiodiplodia theobromae: Purification, Characterization and Antileukemic Activity” (International Journal of Environmental Research and Public …, 2022)
